Experimental data from the CheMixHub viscosity set.

Experiment: xn = mol fraction of the nth substance listed

Cc1cccc(O)c1 + CC(=O)c1ccccc1
303.15 K, 101 kPa
Conditions | viscosity [mPa·s]
x2 = 0.139 | 8.438
x2 = 0.1802 | 8.063
x2 = 0.27 | 7.268
x2 = 0.4388 | 5.843
x2 = 0.4644 | 5.63
x2 = 0.5506 | 4.927
x2 = 0.7407 | 3.39
x2 = 0.8321 | 2.684
x2 = 0.9266 | 2

C[N+](=O)[O-] + CC(C)(C)O
viscosity [mPa·s], 101.33 kPa
Conditions | 298.15 K | 303.15 K | 313.15 K
x2 = 0.05 | 0.609 | 0.569 | 0.511
x2 = 0.1002 | 0.611 | 0.567 | 0.506
x2 = 0.1502 | 0.642 | 0.573 | 0.508
x2 = 0.2 | 0.644 | 0.587 | 0.517
x2 = 0.2499 | 0.674 | 0.609 | 0.531
x2 = 0.3 | 0.749 | 0.638 | 0.549
x2 = 0.3503 | 0.793 | 0.672 | 0.573
x2 = 0.4 | 0.87 | 0.714 | 0.601
x2 = 0.4501 | 0.894 | 0.761 | 0.633
x2 = 0.5001 | 0.972 | 0.819 | 0.671
x2 = 0.55 | 1.072 | 0.886 | 0.717
x2 = 0.6001 | 1.154 | 0.962 | 0.811
x2 = 0.6499 | 1.219 | 1.057 | 0.829
x2 = 0.7 | 1.361 | 1.174 | 0.885
x2 = 0.75 | 1.557 | 1.32 | 0.966
x2 = 0.8 | 1.776 | 1.491 | 1.106
x2 = 0.85 | 2.079 | 1.72 | 1.244
x2 = 0.8999 | 2.51 | 2.05 | 1.442
x2 = 0.95 | 3.194 | 2.527 | 1.697

C[N+](=O)[O-] + CC(C)=O
298.15 K, 101 kPa
Conditions | viscosity [mPa·s]
x1 = 0.1326 | 0.356
x1 = 0.2566 | 0.3972
x1 = 0.3714 | 0.4352
x1 = 0.479 | 0.4701
x1 = 0.5797 | 0.5032
x1 = 0.6739 | 0.5325
x1 = 0.7631 | 0.5603
x1 = 0.8465 | 0.5855
x1 = 0.9257 | 0.6101

OCC1CC1 + CC(C)CC(C)(C)C
viscosity [mPa·s], 101 kPa
Conditions | x1 = 0.0991 | x1 = 0.1991 | x1 = 0.3007 | x1 = 0.4013 | x1 = 0.5 | x1 = 0.6004 | x1 = 0.7007 | x1 = 0.8004 | x1 = 0.9002
293.15 K | 0.535 | 0.592 | 0.676 | 0.801 | 0.97 | 1.214 | 1.561 | 2.068 | 2.803
298.15 K | 0.505 | 0.556 | 0.63 | 0.74 | 0.886 | 1.098 | 1.398 | 1.831 | 2.459
303.15 K | 0.476 | 0.522 | 0.587 | 0.684 | 0.811 | 0.997 | 1.257 | 1.632 | 2.168
308.15 K | 0.45 | 0.491 | 0.549 | 0.634 | 0.746 | 0.908 | 1.136 | 1.46 | 1.921
313.15 K | 0.425 | 0.462 | 0.514 | 0.59 | 0.688 | 0.831 | 1.029 | 1.31 | 1.709
318.15 K | 0.396 | 0.431 | 0.478 | 0.546 | 0.633 | 0.759 | 0.934 | 1.181 | 1.527
323.15 K | 0.38 | 0.411 | 0.454 | 0.514 | 0.59 | 0.701 | 0.854 | 1.071 | 1.372
